Reference: patent publication US20100113523A1 (priority 2008, published 2010)

Columns and labels:
[1] = Pharmacokinetic analysis in humans (serum and urine, DART TOF-MS); type: in vivo; settings: human, ingested in a mixture
Description: Five healthy consenting female adults ranging in age from 23 to 57 were took diets free of flavonoids and any NSAIDs. A certified individual collected blood samples at several time intervals between 0 and 480 min after compounds of the present invention were ingested in a mixture. Immediately after the time zero blood samples were collected, a single 100 mg dose of the composition was administered as a lozenge. Blood samples were handled with approved protocols and precautions, centrifuged to remove cells and the serum fraction was collected and frozen. Blood was not treated with heparin to avoid any analytical interference. Urine samples were collected from the same five subjects on a time course (0 to 8 h).
The cells were removed from the blood samples by centrifugation and the serum was collected. Serum samples were prepared for DART TOF-MS analysis by extraction with an equal volume of neat ethanol (USP) to minimize background of proteins, peptides, and polysaccharides present in serum. The ethanol extract was centrifuged for 10 min at 4° C., the supernatant was removed, concentrated to 200 μL volume, and 50 μL of an internal standard was added. Urine samples were not treated and used directly for DART TOF-MS. DART TOF-MS analyses were conducted as described above.

tryptase enzyme = target: T1, tryptase enzyme (Homo sapiens, UniProt P20231); assay: Tryptase inhibition (cleavage of tosyl-gly-pro-lys-pNA, absorbance at 405 nm); type: biochemical; settings: relative to controls; 2 h at 37° C.
T1 construct: purchased Millipore Inc., Westbury, Mass
T1 sequence (P20231 31-275): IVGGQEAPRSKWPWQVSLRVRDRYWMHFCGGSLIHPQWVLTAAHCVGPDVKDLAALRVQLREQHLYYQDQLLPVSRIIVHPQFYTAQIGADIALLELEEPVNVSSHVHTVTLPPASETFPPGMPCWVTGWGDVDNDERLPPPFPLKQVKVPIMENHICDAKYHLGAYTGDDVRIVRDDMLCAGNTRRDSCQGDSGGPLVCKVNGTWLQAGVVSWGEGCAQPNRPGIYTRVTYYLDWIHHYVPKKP
Description: Tryptase activity was determined by monitoring the production of chromophore p-nitroaniline (pNA) generated by the cleavage of tosyl-gly-pro-lys-pNA by the tryptase enzyme according to the manufacturer's protocol (Millipore Inc., Westbury, Mass.). In a 96-well format, 10 μL of tryptase was added to 10 μL of sample, followed by 20 μL of tosyl-gly-pro-lys-pNA and 160 μL of 1× reaction buffer and incubated for 2 h at 37° C. After the incubation, absorbance at 405 nm was measured in each well using a Tecan M200 microplate reader.

time to appearance in the bloodstream (serum) after ingestion ([1]; single 100 mg lozenge) | time to appearance in urine after ingestion ([1]; single 100 mg lozenge) | time present in the serum post-ingestion ([1]; single 100 mg lozenge, sampling 0 to 480 min) | persistence in the urine post-ingestion ([1]; urine collected 0 to 8 h) | IC50 (tryptase enzyme) | Compound
≤ 10 min | ≤ 1 h | up to 480 min | up to 8 h | – | CCCCCC/C=C/CN(c1ccc(C)cc1)c1ccc(S)cn1 [compound (V)]
– | – | – | – | 789 µM | CCCCCC/C=C/CN(c1ccc(C)cc1)c1ccc(SSc2ccc(N(C/C=C/CCCCCC)c3ccc(C)cc3)nc2)cn1 [compound [7]]
